Columns and labels:
[1] = test system: HCT116/OxR cells; experiment: 72 h cell viability (MTT) assay; type: cell-based, human; settings: HCT116/OxR, 72 h continuous exposure; read-out: IC50 value (95% confidence interval)
Method: Absorbance was measured at 450 nm (at 620 nm as reference) using the multimode plate reader Tecan Infinite 200 Pro (Zurich, Switzerland). Cytotoxicity was expressed as IC50 values calculated from full dose-response curves using the 4 parameter nonlinear regression model of GraphPad Prism 8 software (La Jolla, CA, USA).

[2] = test system: BEC endothelial cells; experiment: 72 h cell viability (MTT) assay; type: cell-based, human
Method: (§1) Cells were seeded (3–4 ×10^3 cells/well) in 96-well plates in 100 µL and after 24 h recovery treated with 100 µL of compounds at the indicated concentrations in triplicates. After 72 h drug exposure cell viability was determined by 3-(4,5-dimethylthiazol-2-yl)-2,5-diphenyltetrazolium bromide (MTT)-vitality assay (EZ4U, Biomedica, Vienna, Austria) following the manufacturer’s recommendations, as published. Absorbance was measured at 450 nm (at 620 nm as reference) using the multimode plate reader Tecan Infinite 200 Pro (Zurich, Switzerland). Cytotoxicity was expressed as IC50 values calculated from full dose-response curves using the 4 parameter nonlinear regression model of GraphPad Prism 8 software (La Jolla, CA, USA).

[3] = test system: HCT116 cells; experiment: 72 h cell viability (MTT) assay; type: cell-based, human; settings: HCT116, 72 h continuous exposure; read-out: IC50 value (95% confidence interval)
Method: as §1

[4] = test system: HaCat keratinocytes; experiment: 72 h cell viability (MTT) assay; type: cell-based, human
Method: as §1

[5] = test system: HCT116 and HCT116/OxR cells; experiment: In vitro platinum cell uptake by ICP-MS; type: cell-based, human; settings: 3 h exposure
Method: Cells were seeded at 1.5 ×10^5 cells/well in six-well plates in 1.5 mL and after 24 h recovery treated with 500 µL of compounds at the indicated concentrations in triplicates. After 3 h drug exposure, cells were detached, washed twice with phosphate-buffered saline (PBS), dried at RT for 15 min and lysed in 100 µL HNO3 (69%, Rotipuran Supra, Carl Roth, Karlsruhe, Germany) for 1 h at RT. The lysate was added to fresh tubes containing 200 µL ddH2O. ICP-MS measurements were performed with an Agilent 8800 ICP-MS/MS instrument (Agilent Technologies, Tokyo, Japan). The sample introduction system consisted of a MicroMist nebulizer (200 μL min^−1 nominal sample uptake) and a quartz double-pass spray chamber. The instrument was tuned on a daily basis in order to achieve maximum sensitivity, low oxide formation, and low doubly charged ratios. Platinum was monitored in no gas mode with an integration time of 0.3 s. The flow injection measurements were performed with a bioinert HPLC 1260 (Agilent Technologies, Waldbronn, Germany), which was directly connected to the nebulizer of the ICP-MS/MS instrument with a PEEK tubing. The following chromatographic conditions were used: injection volume: 10 µL; flow rate: 0.30 mL min^-1; isocratic elution; CH3COONH4 (50 mM, pH = 6.8) aqueous solution was employed as mobile phase. The data were recorded and evaluated with the Agilent MassHunter Chromatography software package, MassHunter 4.6., 2019.

[6] = test system: HCT116 and HCT116/OxR cells; experiment: Cellular GSH content (GSH/GSSG-Glo); type: cell-based, human; settings: 24 h exposure, single agent
Method: (§2) GSH levels in HCT116 and HCT116/OxR cells (7.5 × 10^4 cells per well in 96-well plates, in triplicate), or in CT26 tumor tissues (25–50 mg/sample) were determined using the luminescence-based detection system GSH/GSSG-Glo^TM assay (Promega, Madison, WI) following the manufacturer’s recommendations. Quantifications are based on the comparison with a GSH standard curve delivered in the assay and normalized to the total protein content of the samples determined by the Micro BCA^TM protein assay kit (Thermo Scientific).

[7] = Serum pharmacokinetics (platinum by ICP-MS) after single dose; type: in vivo, BALB/c mice; settings: for serum half-life (fast), two-phase decay model / serum half-life (slow), two-phase decay model / serum half-life, one-phase decay model: serum platinum
Method: Blood was drawn after 5 min, 30 min, 6 h, 24 h, 72 h, 1 and 2 weeks from the facial vein as published. Serum was isolated by centrifugation at 900 g for 10 min for two times and stored at –80 °C. In addition, blood samples and tissues from the allograft experiment after the two-weeks therapy experiment were analyzed. Digestion of tissue (approx. 10–30 mg gravimetrically weighted) was performed with 2 mL of approx. 20% nitric acid and 100 µL H2O2 using an open vessel graphite digestion system (coated graphite heating plate, coated sample holder-top for 25 mL vials, perfluoroalkoxy (PFA) vials and PFA lids; Labter, ODLAB; AHF Analysentechnik AG; Germany). HNO3 (67–69%, suprapur for trace metal analysis, NORMATOM; VWR international, Austria) and conc. H2O2 suprapur (Merck, 30%) were used without further purification. Ultrapure water (18.2 MΩ cm, Milli-Q Advantage, Darmstadt, Germany) was used for all dilutions for ICP-MS measurements. Platinum and rhenium standards for ICP-MS measurements were derived from CPI International (Amsterdam, The Netherlands). The platinum content was determined using an Agilent 7800 ICP-MS instrument. The ICP-MS Agilent 7800® (Agilent Technologies, Tokyo, Japan) was equipped with an Agilent SPS 4 autosampler (Agilent Technologies, Tokyo, Japan) and a MicroMist nebulizer at a sample uptake rate of approx. 0.2 mL/min. The Agilent MassHunter® software package (Workstation Software, version C.01.04, Build 544.17, Patch 3, 2018) was used for data processing. The instrument was tuned on a daily basis to achieve maximum sensitivity. In case of the single-dose experiment, serum area-under the curve (AUC) and serum half-life (one-phase and two-phase decay models) were determined using the respective non-linear fit regression models of GraphPad Prism software.

[8] = test system: CT26 allografts; experiment: In vivo anticancer activity, CT26 allografts; set-up: species or system BALB/c mice; settings: for tumor doubling time extended: CT26 allografts, equimolar doses; for tumor doubling time extended / maximal tumor growth inhibition: twice a week for two weeks; for maximal tumor growth inhibition: day 11, CT26 allografts, equimolar to 9 mg/kg oxaliplatin i.v.; for tumor volumes as compared to solvent controls: first two weeks of treatment
Method: (§3) Eight-to nine-week-old female BALB/c mice bred in-house (originally Janvier) were kept in pathogen-free conditions and controlled environment with 12 h light-dark cycle. CT26 cells (5 × 10^5 in 50 µL serum-free RPMI medium) were injected subcutaneously (s.c.) into the right flank of the animals. […] Tumor growth was evaluated by daily recording of tumor size by caliper measurement. […] The reasons were primarily either enhanced tumor size or ulceration. For drug distribution (digestion and ICP-MS measurement details see below), histological and GSH determination experiments, mice were treated twice during one week and sacrificed 24 h after the last drug dosing. The animal experiments were performed according to the regulations of the Ethics Committee for the Care and Use of Laboratory Animals at the Medical University Vienna (proposal number BMBWF-V/3b 2020-0.380.502).

[9] = test system: CT26 tumor tissue; experiment: Tumor tissue markers (mitoses, Ki-67, pH2AX, GSH) after one week of therapy; type: in vivo, BALB/c mice; settings: for number of mitotic tumor cells as compared to solvent controls: H&E-stained sections
Method: (§4) Eight-to nine-week-old female BALB/c mice bred in-house (originally Janvier) were kept in pathogen-free conditions and controlled environment with 12 h light-dark cycle. CT26 cells (5 × 10^5 in 50 µL serum-free RPMI medium) were injected subcutaneously (s.c.) into the right flank of the animals. […] Tumor growth was evaluated by daily recording of tumor size by caliper measurement. […] For drug distribution (digestion and ICP-MS measurement details see below), histological and GSH determination experiments, mice were treated twice during one week and sacrificed 24 h after the last drug dosing. The animal experiments were performed according to the regulations of the Ethics Committee for the Care and Use of Laboratory Animals at the Medical University Vienna (proposal number BMBWF-V/3b 2020-0.380.502).
(§5) Formalin-fixed, paraffin-embedded tissue sections were prepared from tumors and animal organs (animal experiment details see above) and H&E stains performed by standard methods. Mouse-specific Ki-67 rabbit mAb (#12202) and mouse-specific pH2AX rabbit mAb (#9718) were purchased from Cell Signaling Technology (Beverly, MA, USA) and used following the manufacturer’s recommendations in a dilution of 1:200 (Ki-67) and 1:500 (pH2AX) for immunohistochemical staining.
as §2

[10] = test system: kidney, lung, liver sections; experiment: pH2AX DNA damage staining in healthy organs; type: in vivo, BALB/c mice; settings: lung and kidney sections
Method: as §3, §5

[11] = Tolerability in mice; type: in vivo, BALB/c mice
Method: as §3

[12] = set-up: method as in PMID 7895599; settings: patients; cited from earlier work
[13] = target: T1, albumin (Bos taurus, UniProt P02769); experiment: Albumin binding in fetal calf serum by SEC-ICP-MS; type: in vitro ADME; settings: fetal calf serum 37 °C, 100 μM
T1 construct: tissue Sigma-Aldrich; host or cells: fetal calf serum
T1 sequence (P02769 25-607): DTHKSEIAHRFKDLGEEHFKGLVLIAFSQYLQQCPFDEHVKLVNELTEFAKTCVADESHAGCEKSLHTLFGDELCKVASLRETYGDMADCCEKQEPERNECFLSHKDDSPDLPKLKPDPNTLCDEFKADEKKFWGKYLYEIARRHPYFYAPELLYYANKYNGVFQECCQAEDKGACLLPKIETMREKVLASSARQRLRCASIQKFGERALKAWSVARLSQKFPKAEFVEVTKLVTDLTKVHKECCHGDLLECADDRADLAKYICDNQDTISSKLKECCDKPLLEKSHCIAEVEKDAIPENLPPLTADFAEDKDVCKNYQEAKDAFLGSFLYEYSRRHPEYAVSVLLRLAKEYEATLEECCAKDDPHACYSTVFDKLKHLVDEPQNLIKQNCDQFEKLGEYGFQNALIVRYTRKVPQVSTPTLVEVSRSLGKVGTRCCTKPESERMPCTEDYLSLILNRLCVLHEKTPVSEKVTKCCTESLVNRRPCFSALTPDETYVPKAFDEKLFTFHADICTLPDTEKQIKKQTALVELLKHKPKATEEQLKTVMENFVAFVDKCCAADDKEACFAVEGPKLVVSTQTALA
Method: Fetal calf serum was purchased from Sigma-Aldrich and buffered with 150 mM phosphate buffer (pH 7.4) to guarantee a stable pH. The platinum(IV) complexes were dissolved in 150 mM phosphate buffer (pH 7.4) to 1 mM and diluted 1:10 in serum to obtain a final concentration of 100 μM. The samples were then incubated in the autosampler at 37 °C for 24 h and analyzed at 0 h, 1 h, 4 h, and 24 h. Between each sample, a pure water blank was measured. For SEC-ICP-MS measurements, an Agilent 1260 Infinity system coupled to an Agilent 7800 ICP-MS equipped with a dynamic reaction cell was used. Oxygen (purity 5.5, Messer AustriaGmbH, Gumpoldskirchen, Austria) was used as reaction gas at 30% and 0.9 L/min flow.

[14] = Tissue/organ platinum distribution in CT26 allograft mice; type: in vivo, BALB/c mice; settings: two i.v. doses in one week, 24 h after second dosing
Method: as §4

[15] = test system: A2780 cells; experiment: 72 h cell viability (MTT) assay; type: cell-based, human; settings: A2780, 72 h continuous exposure; read-out: IC50 value (95% confidence interval)
Method: as §1

[16] = test system: A2780/Cis cells; experiment: 72 h cell viability (MTT) assay; type: cell-based, human
Method: as §1

Compound: O=C1[O][Pt]2([NH][C@@H]3CCCC[C@H]3[NH]2)[O]C1=O [oxaliplatin, reference compound]
- IC50 [1]: > 10 µM
- IC50 [2]: 10.3 µM
- IC50 [3]: 0.58 µM
- IC50 [4]: 3.4 µM
- intracellular accumulation in HCT116/OxR as compared to parental HCT116 [5]: significantly reduced
- impact on cellular GSH content [6]: did not alter the GSH content
- serum half-life (fast), two-phase decay model ([7]; single equimolar dose, mice): 0.1528 h
- serum half-life (slow), two-phase decay model ([7]; single equimolar dose, mice): 15.38 h
- serum half-life, one-phase decay model ([7]; single equimolar dose, mice): 0.2624 h
- tumor doubling time extended [8]: 1.3 fold
- maximal tumor growth inhibition [8]: 51.3%
- tumor volumes as compared to solvent controls [8]: significantly reduced tumor volumes
- number of mitotic tumor cells as compared to solvent controls ([9]; one week of therapy): significantly reduced
- GSH content in malignant tissue ([9]; one week of therapy): distinctly reduced the content of GSH
- DNA damage (pH2AX) in healthy organs [10]: induced pH2AX-positive cells in both lung and kidney samples
- maximum tolerated dose (MTD) [11]: 9 mg/kg

Compound: CCCCS(=N)(=O)CC[C@H](N)C(=O)O (stereo partly drawn) [BSO, L-Buthionine-S,R-sulfoximine]
- plasma half-life [12]: < 2 h

Compound: CCCCS(=N)(=O)CCC(NC(=O)[O][Pt]1([O]C(=O)NCCCCCN2C(=O)C=CC2=O)[O]C(=O)C(=O)[O]1)C(=O)O.NC1CCCCC1N (mixture of isomers) [BSO-OxMal, (OC-6-24)-((1 S)-3-(Butylsulfonimidoyl)-1-carboxypropyl)carbamato(1 R,2 R)-1,2-cyclohexanediamino(5-(2,5-dioxo-2,5-dihydro-1H-pyrrol-1-yl)pentyl)carbamatooxalatoplatinum(IV)]
- bound to albumin fraction ([13]; t 0 h): 76%
- free (low molecular weight fraction) ([13]; t 0 h): 24%
- bound to albumin fraction ([13]; t 1 h): 100%
- free (low molecular weight fraction) ([13]; t 1 h): 0%
- bound to albumin fraction ([13]; t 4 h): 100%
- free (low molecular weight fraction) ([13]; t 4 h): 0%
- bound to albumin fraction ([13]; t 24 h): 97%
- free (low molecular weight fraction) ([13]; t 24 h): 3%
- serum half-life higher as compared to oxaliplatin ([7]; depending on the regression model used): more than 10 fold
- serum half-life (fast), two-phase decay model ([7]; single equimolar dose, mice): 1.217 h
- serum half-life (slow), two-phase decay model ([7]; single equimolar dose, mice): 22.28 h
- serum half-life, one-phase decay model ([7]; single equimolar dose, mice): 3.968 h
- increase of AUC (total area) as compared to oxaliplatin ([7]; single equimolar dose, mice): > 12 fold
- increased serum platinum levels in comparison to oxaliplatin [14]: more than 20 fold
- tumor doubling time extended [8]: 1.8 fold
- overall survival ([8]; Kaplan Meier, Mantel-Cox test): significantly increased overall survival
- maximal tumor growth inhibition [8]: 61.2%
- tumor volumes as compared to solvent controls [8]: significantly reduced tumor volumes
- number of mitotic tumor cells as compared to solvent controls ([9]; one week of therapy): significantly reduced
- DNA damage (pH2AX) in tumor ([9]; non-necrotic parts of the tumor): distinctly enhanced DNA damage as compared to oxaliplatin
- Ki-67 antiproliferative effect ([9]; non-necrotic tumor regions, one week of therapy): significantly stronger antiproliferative effect
- GSH content in malignant tissue ([9]; one week of therapy): significantly stronger effect
- DNA damage (pH2AX) in healthy organs [10]: avoids renal DNA damage

Compound: N.N.[Cl][Pt][Cl] [cisplatin, reference compound]
- IC50 [15]: 1.9 µM
- IC50 ([16]; A2780/Cis, 72 h continuous exposure, read-out: IC50 value (95% confidence interval)): 7.7 µM
- resistance factor ([16]; IC50 A2780/Cis divided by IC50 A2780): 4.1

Reference: publication PMC9814792 (Communications Chemistry, 2022)
